{
  "source": "patent US7572798B2",
  "about": "“Combi-molecules having signal transduction inhibitory properties and DNA damaging properties” (McGill University, priority 2001, dated 2009)",
  "key": {"EGFR [1]": {"biological_target": "T1, EGFR (Homo sapiens, UniProt P00533)", "T1 sequence (P00533 25-1210)": "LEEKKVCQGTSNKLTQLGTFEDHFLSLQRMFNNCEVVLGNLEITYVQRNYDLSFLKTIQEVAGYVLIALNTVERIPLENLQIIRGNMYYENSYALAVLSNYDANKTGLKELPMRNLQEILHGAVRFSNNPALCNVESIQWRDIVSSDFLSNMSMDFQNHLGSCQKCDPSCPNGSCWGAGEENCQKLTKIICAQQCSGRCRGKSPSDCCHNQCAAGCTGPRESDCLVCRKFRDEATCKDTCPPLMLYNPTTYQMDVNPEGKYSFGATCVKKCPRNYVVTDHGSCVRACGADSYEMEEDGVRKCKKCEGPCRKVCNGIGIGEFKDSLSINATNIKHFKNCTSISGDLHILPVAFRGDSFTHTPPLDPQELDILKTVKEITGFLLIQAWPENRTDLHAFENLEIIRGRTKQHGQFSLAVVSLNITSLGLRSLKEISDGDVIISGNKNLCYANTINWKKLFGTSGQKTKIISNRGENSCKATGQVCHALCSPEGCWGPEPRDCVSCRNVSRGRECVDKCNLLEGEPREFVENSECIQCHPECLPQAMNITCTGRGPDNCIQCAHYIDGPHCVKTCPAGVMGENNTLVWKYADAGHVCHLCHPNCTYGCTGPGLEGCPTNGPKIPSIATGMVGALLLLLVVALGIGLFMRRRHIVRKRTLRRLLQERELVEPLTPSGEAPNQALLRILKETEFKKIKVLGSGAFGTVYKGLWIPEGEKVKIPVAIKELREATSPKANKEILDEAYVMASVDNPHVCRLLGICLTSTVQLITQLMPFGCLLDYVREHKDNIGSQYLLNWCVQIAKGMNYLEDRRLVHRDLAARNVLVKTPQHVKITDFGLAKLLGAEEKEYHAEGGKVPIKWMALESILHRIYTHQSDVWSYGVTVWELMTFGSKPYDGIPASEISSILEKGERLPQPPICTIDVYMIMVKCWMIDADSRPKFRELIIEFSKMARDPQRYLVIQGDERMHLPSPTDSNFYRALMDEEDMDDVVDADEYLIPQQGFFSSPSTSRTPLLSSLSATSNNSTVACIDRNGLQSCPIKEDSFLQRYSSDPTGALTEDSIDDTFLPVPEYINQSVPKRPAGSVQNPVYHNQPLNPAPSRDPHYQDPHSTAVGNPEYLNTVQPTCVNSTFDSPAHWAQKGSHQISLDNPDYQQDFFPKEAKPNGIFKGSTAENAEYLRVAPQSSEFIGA", "test": "EGFR TK ELISA with PGT substrate (competitive binding at the ATP site)", "assay_type": "biochemical", "set-up": "purchased BIOMOL (Plymouth Meeting); also a gift from Pfizer Inc", "procedure": "The ability of the combi-molecules to block EGFR TK activity was determined by an ELISA assay using poly(L-glutamic acid-L-tyrosine, 4:1) PGT as a substrate and commercially available EGFR.\nNunc MaxiSorp 96-well plates were incubated overnight at 37° C. with 100μL per well of 0.25 mg/mL PGT in PBS. Excess PGT was removed and the plates were washed 3 times with Tween 20 (0.1%) in PBS. […] The compound was added and phosphorylation initiated by the addition of ATP (20 μM). After 8 min at room temperature with constant shaking, the reaction was terminated by the aspiration of the reaction mixture and by rinsing the plate 4 times with wash buffer (Tween 20 (0.1%) in PBS). […] Antibody was removed by aspiration, and the plates washed 4 times with wash buffer. The signals were developed by the addition of 50 μL per well of TMB peroxidase substrate (Kierkegaard and Perry Laboratories, Gaithersberg, Md.).\nThis assay is similar to the one previously described. Nunc MaxiSorp 96-well plates were incubated overnight at 37° C. with 100 μl/well of 25 ng/ml PGT in PBS. Excess PGT was removed and the plates were washed three times with wash buffer (Tween 20 (0.1%) in PBS). […] The compound was added and phosphorylation initiated by the addition of ATP (20 μM). After 8 min at room temperature with constant shaking, the reaction was terminated by aspirating the mixture and by rinsing the plates four times with wash buffer Tween 20 (0.1%) in PBS. […] Antibody was removed by aspiration, and the plate washed four times with wash buffer. The signals were developed by the addition of 50 μl/well of 3,3′,5,5′-tetramethylbenzidine (TMB) peroxidase substrate (Kierkegaard and Perry Laboratories, Gaithersberg, Md., USA)."}, "[2]": {"biological_target": "T2, HER2 (erbB2) gene product p185neu (Homo sapiens, UniProt P04626)", "T2 construct": "heregulin (HRG)-stimulated phosphorylation of the HER2 (erbB2) gene product; endogenous in cells", "T2 sequence (P04626 23-1255)": "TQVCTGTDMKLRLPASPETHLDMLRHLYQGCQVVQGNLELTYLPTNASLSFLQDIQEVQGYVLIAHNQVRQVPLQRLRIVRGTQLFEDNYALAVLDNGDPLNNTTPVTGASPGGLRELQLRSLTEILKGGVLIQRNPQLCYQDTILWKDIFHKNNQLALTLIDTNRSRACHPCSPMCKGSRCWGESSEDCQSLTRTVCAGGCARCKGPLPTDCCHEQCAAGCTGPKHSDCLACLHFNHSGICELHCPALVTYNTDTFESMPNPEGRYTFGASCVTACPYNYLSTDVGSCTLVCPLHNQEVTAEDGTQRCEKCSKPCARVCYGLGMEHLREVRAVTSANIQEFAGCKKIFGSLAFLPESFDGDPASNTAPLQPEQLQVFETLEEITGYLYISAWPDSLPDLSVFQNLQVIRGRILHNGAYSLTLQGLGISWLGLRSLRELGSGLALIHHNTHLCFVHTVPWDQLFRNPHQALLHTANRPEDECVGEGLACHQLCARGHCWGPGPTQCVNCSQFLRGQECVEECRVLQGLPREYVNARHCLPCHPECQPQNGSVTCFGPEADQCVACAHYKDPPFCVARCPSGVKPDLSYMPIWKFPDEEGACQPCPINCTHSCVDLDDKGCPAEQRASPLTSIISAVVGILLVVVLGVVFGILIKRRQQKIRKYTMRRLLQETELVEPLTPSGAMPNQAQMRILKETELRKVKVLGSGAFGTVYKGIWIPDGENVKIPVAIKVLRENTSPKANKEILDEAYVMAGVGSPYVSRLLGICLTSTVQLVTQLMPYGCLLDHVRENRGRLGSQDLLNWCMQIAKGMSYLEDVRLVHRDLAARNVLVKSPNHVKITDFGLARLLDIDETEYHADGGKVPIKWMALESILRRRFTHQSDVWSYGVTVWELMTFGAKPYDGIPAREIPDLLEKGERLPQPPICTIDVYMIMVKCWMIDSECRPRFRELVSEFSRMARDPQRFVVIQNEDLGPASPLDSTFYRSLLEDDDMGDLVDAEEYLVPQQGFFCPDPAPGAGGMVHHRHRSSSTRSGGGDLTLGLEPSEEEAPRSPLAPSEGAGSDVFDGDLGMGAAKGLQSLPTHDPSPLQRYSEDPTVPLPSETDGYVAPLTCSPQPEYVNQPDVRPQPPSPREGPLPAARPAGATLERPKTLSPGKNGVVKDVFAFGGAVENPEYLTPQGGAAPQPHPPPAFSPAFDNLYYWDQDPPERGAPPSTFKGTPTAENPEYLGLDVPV", "test": "Heregulin-stimulated phosphorylation of p185neu in MDA-MB453 cells", "assay_type": "cell-based"}, "A431 cells [3]": {"test_system": "A431 cells", "test": "Alkaline comet assay for DNA damage in A431 cells", "conditions": "A431, 30 min or 2 h exposure", "quoted_text": "A431 cells were exposed to drugs for 30 min or 2 h, and harvested with trypsin-EDTA. The cells were subsequently collected by centrifugation and re-suspended in PBS. The resulting cell suspension was diluted to approximately 10^6 cells, and mixed with agarose (1%) in PBS at 37° C. in a 1:10 dilution. The gels were cast on Gelbond strips (Mandel Scientific, Guelph, Canada) using gel casting chambers, as previously described (32), then immediately placed into a lysis buffer [2.5 M NaCl, 0.1 M tetra-sodium EDTA, 10 mM tris-base, 1% (w/v) N-lauryl sarcosine, 10% (v/v) DMSO and 1% (v/v) Triton X-100]. After being kept on ice for 30 min, the gels were gently rinsed with distilled water and then immersed in a second lysis buffer [2.5 M NaCl, 0.1 M tetra-sodium EDTA, 10 mM tris-base], containing 1 mg/ml proteinase K for 60 min at 37° C. Thereafter, the gels were rinsed with distilled water, incubated in alkaline electrophoresis buffer for 30 min at 37° C., and electrophoresed at 300 mA for 60 min. The gels were subsequently rinsed with distilled water and placed into 1 M ammonium acetate for 30 min. They were further soaked in 100% ethanol for 2 h, dried overnight and subsequently stained with SYBR Gold ( 1/10000 dilution of stock supplied from Molecular Probes, OR) for 20 min. For evaluation of comets, DNA damage was assessed using the Tail Moment parameter (i.e. the product of the distance between the barycentres of the head and the tail of the comet. A minimum of 50 cell comets were analyzed for each sample using ALKOMET v3.1 software, and values are an average of tail moments for the entire cell population.\nCell suspensions were diluted to approximately 10^6 cells, and mixed with agarose (1%) in PBS at 37° C. in a 1:10 dilution. The gels were cast on Gelbond strips (Mandel Scientific, Guelph, Canada) using gel casting chambers, as previously described (31), and then immediately placed in a lysis buffer [2.5 M NaCl, 0.1 M tetra-sodium EDTA, 10 mM Tris-base, 1% (w/v) N-lauryl sarcosine, 10% (v/v) DMSO, and 1% (v/v) Triton X-100, pH 10.0]. After being kept on ice for 30 min, the gels were gently rinsed with distilled water and immersed in a second lysis buffer (2.5 M NaCl, 0.1 M tetrasodium EDTA, 10 mM Tris-base) containing 1 mg/ml proteinase K for 60 min at 37° C. Thereafter, the gels were rinsed with distilled water, incubated in alkaline electrophoresis buffer for 30 min at 37° C., and electrophoresed at 300 mA for 60 min. The gels were subsequently rinsed with distilled water and placed in 1 M ammonium acetate for 30 min. They were soaked in 100% ethanol for 2 h, dried overnight, and subsequently stained with SYBR Gold ( 1/10000 dilution of stock supplied from Molecular Probes, Eugene, Oreg.) for 20 min. Comets were visualized at 330× magnification and DNA damage was quantitated using the Tail Moment parameter (i.e., the distance between the barycenter of the head and the tail of the comet multiplied by the percentage of DNA within the tail of the comet). A minimum of 50 cell comets were analyzed for each sample, using ALKOMET version 3.1 image analysis software, and values are averages of tail moments for the entire cell population per sample."}, "[4]": {"test_system": "NIH3T3 and NIH3T3HER14 cells", "test": "Alkaline comet assay in isogenic pair NIH3T3 / NIH3T3HER14", "assay_type": "cell-based, mouse", "conditions": "NIH3T3HER14 versus NIH3T3, 30 min", "quoted_text": "The alkaline comet assay was performed as previously described (26). […] Cell suspensions were diluted to approximately 10^6 cells, and mixed with agarose (1%) in PBS at 37° C. in a 1:10 dilution. The gels were cast on Gelbond strips (Mandel Scientific, Guelph, Canada) using gel casting chambers, as previously described (31), and then immediately placed in a lysis buffer [2.5 M NaCl, 0.1 M tetra-sodium EDTA, 10 mM Tris-base, 1% (w/v) N-lauryl sarcosine, 10% (v/v) DMSO, and 1% (v/v) Triton X-100, pH 10.0]. After being kept on ice for 30 min, the gels were gently rinsed with distilled water and immersed in a second lysis buffer (2.5 M NaCl, 0.1 M tetrasodium EDTA, 10 mM Tris-base) containing 1 mg/ml proteinase K for 60 min at 37° C. Thereafter, the gels were rinsed with distilled water, incubated in alkaline electrophoresis buffer for 30 min at 37° C., and electrophoresed at 300 mA for 60 min. […] Comets were visualized at 330× magnification and DNA damage was quantitated using the Tail Moment parameter (i.e., the distance between the barycenter of the head and the tail of the comet multiplied by the percentage of DNA within the tail of the comet). A minimum of 50 cell comets were analyzed for each sample, using ALKOMET version 3.1 image analysis software, and values are averages of tail moments for the entire cell population per sample."}, "EGFR [5]": {"biological_target": "T1, EGFR", "test": "Reverse EGFR autophosphorylation (reversibility) assay in A431 cells", "assay_type": "cell-based", "conditions": "A431, 30 μM", "procedure": "To test this hypothesis, the reversibility assay (40, 41) was used, according to which the cells are treated with the drug for 90 min after which the culture medium is repeatedly removed and replaced 3 times, followed by the measurement of EGFR autophosphorylation.\nA431 cells were grown to confluence in 6-well plates and then incubated in serum-free medium for 18 h (41). Duplicate sets of cells were then treated with 30 μM of each compound for 90 min. One set of cells was then stimulated with EGF (100 ng/ml) for 10 min and extracts were made as described under the Western blotting procedure above. The other set of cells was washed free of each compound with warmed serum-free media and incubated for 2 h. Thereafter, the cells were washed, incubated for another 2 h, washed again, and then incubated for a further 4 h. This set of cells was then stimulated with EGF and extracts were prepared as for the first set."}, "PDGFR": {"test_system": "PDGFR", "test": "PDGF-induced PDGFR autophosphorylation in NIH3T3 cells (Western blot)", "assay_type": "cell-based, mouse", "conditions": "concentrations as high as 30 μM", "quoted_text": "The inhibition of receptor autophosphorylation in viable cells was determined by anti-phosphotyrosine Western Blots. A431 and NIH3T3 cells were grown to confluence in 6-well plates, washed twice with PBS and exposed to serum-free medium for 18 h. They were subsequently treated with the compounds for 90 min and then with EGF (100 ng/ml) for 10 min (A431 cells), or with PDGF (100 ng/ml) for 10 min (NIH3T3 cells). They were thereafter washed with PBS and re-suspended in cold lysis buffer [50 mM Tris-HCl pH 7.5; 150 mM NaCl; 1% Nonidet P-40, 1 mM EDTA; 5 mM NaF; 1 mM Na3VO4; protease inhibitor tablet (Roche Biochemicals, Laval, Canada)]. The lysates were kept on ice for 30 min and collected by centrifugation at 10,000 rpm for 20 min at 4° C. Protein concentrations were determined against a standardized control using the Bio-Rad protein assay kit (Bio-Rad Laboratories, Hercules, Calif.). Equal amounts of protein (40 μg/mL) from each cell lysate were added to an 8% SDS-polyacrylamide gel electrophoresis (SDS-PAGE) and transferred to a polyvinylidene difluoride membrane (PVDF) (Millipore, Bedford, Mass.). Non-specific binding on the membrane was minimized with a blocking buffer containing non-fat dry milk (3%) in PBS. […] Band intensities were measured using the SynGene GeneTools software package (Cambridge, UK)."}, "A431 cells [6]": {"test_system": "A431 cells", "test": "SRB growth inhibition assay in A431 cells", "assay_type": "cell-based, human", "conditions": "for IC50: Homo sapiens", "procedure": "All growth inhibitory activities were evaluated using the SRB assay (33). Briefly, following drug treatment, cells were fixed using 50 μL of cold trichloroacetic acid (50%) for 60 min at 4° C., washed five times with tap water, and stained for 30 min at room temperature with SRB (0.4%) dissolved in acetic acid (0.5%). The plates were rinsed five times with 1% acetic acid and allowed to air dry. The resulting colored residue was dissolved in 200 μL of Tris base (10 mM), and the optical density read for each well at 540 nm using a Bio-Rad microplate reader (model 2550). […]\nCell monolayers were continuously exposed to different concentrations of each drug for 72 h. Under short exposure, they were treated with each drug for 2 h and allowed to recover for 72 h in drug-free medium.\nTo study the reversibility of the antiproliferative effects of our compounds, cells were grown to 70% confluence in 96-well plates and subsequently washed twice with PBS, after which they were exposed to serum-free medium for 18 h. Under continuous exposure, the cells were exposed to different concentrations of each drug for 120 h. Under short exposure, they were exposed to each drug for 2 h, after which they were allowed to recover for 120 h in drug free medium. Growth inhibitory activities were evaluated using the SRB assay as described above."}, "MAPK": {"test_system": "MAPK", "test": "EGF-induced MAPK phosphorylation in A431 cells (Western blot)", "assay_type": "cell-based, human", "conditions": "A431, at concentrations as low as 1 μM", "procedure": "For the inhibition study of mitogen-activated protein kinase (MAPK) activation by BJ2000, protein lysates were obtained as described above and a Western blot was performed (39). The membrane was incubated with anti-phosphorylated MAPK antibodies or antibodies specific for MAPK (Cell Signaling, Beverly, Mass., USA)."}},
  "note": "“Also recorded” adds a separate entry of the source. Read-outs that look alike come from different tables or passages of the source.",
  "data": [
    {"molecule": "CNN=Nc1ccc2ncnc(Nc3cccc(Cl)c3)c2c1", "note": "[BJ2000]", "values": [
      {"measurement": "fold stronger affinity than SMA41", "setting": "EGFR [1]", "result": 2, "unit": "fold"},
      {"measurement": "IC50", "setting": "EGFR [1]; ELISA, PGT substrate, purified EGFR, ATP 20 μM, 8 min, read-out: IC50, inhibition of EGFR TK (competitive binding at ATP site)", "result": 0.1, "unit": "µM"},
      {"measurement": "fold greater EGFR binding affinity than metabolite FD105", "setting": "EGFR [1]; purified EGFR, ATP site", "result": 2, "unit": "fold"},
      {"measurement": "effect on heregulin (HRG)-stimulated phosphorylation of p185neu", "setting": "[2]", "result": "able to block"},
      {"measurement": "DNA damage (comet tail moment)", "setting": "A431 cells [3]", "result": "induced dose-dependent DNA damage; also recorded: induced significant DNA damage"},
      {"measurement": "fold higher levels of DNA damage in the EGFR transfectant", "setting": "[4]", "result": "more than 2 fold"},
      {"measurement": "EGF-dependent EGFR autophosphorylation immediately after drug exposure", "setting": "EGFR [5]; 90 min", "result": "completely suppressed"},
      {"measurement": "EGFR autophosphorylation activity restored", "setting": "EGFR [5]; 8 h post-treatment in drug-free medium after repeated washouts", "result": 40, "unit": "%"},
      {"measurement": "effect on PDGF-induced PDGFR autophosphorylation", "setting": "PDGFR", "result": "no effect"},
      {"measurement": "fold more potent than metabolite FD105", "setting": "A431 cells [6]; 120 h continuous, SRB, A431", "result": "≈ 3 fold"},
      {"measurement": "IC50", "setting": "A431 cells [6]; A-431, 120 h, read-out: IC50 growth inhibition", "result": 15, "unit": "µM"},
      {"measurement": "IC50", "setting": "A431 cells [6]; A-431, read-out: IC50 growth inhibition", "result": 38, "unit": "µM"},
      {"measurement": "inhibition of EGF-induced MAPK phosphorylation", "setting": "MAPK", "result": "complete inhibition; also recorded: block MAPK phosphorylation"}
    ]}
  ]
}
